From ChEMBL document CHEMBL1201862, “PubChem BioAssay data set” (2004)
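Briefly, cells in 96-well plates were exposed to five compound concentrations for 48 h, and endpoints were estimated by linear interpolation. Here, GI50 denotes the concentration required for 50% inhibition of growth.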 Activity calls are given as the source filed them. Rule as the data show it: active = GI50 up to about 1.1 µM and inactive = higher.

Tests used:
Assay in all cases: NCI-60 cell line screen, 48 h
786-0 = tested on: 786-0
UACC-62 = tested on: UACC-62
Malme-3M = tested on: Malme-3M
Hs-578T = tested on: Hs-578T
RXF 393 = tested on: RXF 393
OVCAR-5 = tested on: OVCAR-5
MDA-MB-231 = tested on: MDA-MB-231
SN12C = tested on: SN12C
LOX IMVI = tested on: LOX IMVI
CAKI-1 = tested on: CAKI-1
K562 = tested on: K562
SK-OV-3 = tested on: SK-OV-3
HCT-15 = tested on: HCT-15
A549 = tested on: A549
DU-145 = tested on: DU-145
COLO 205 = tested on: COLO 205
MOLT-4 = tested on: MOLT-4
SK-MEL-5 = tested on: SK-MEL-5
NCI-H226 = tested on: NCI-H226
HL-60 = tested on: HL-60

| Structure (SMILES) | GI50 (786-0) | GI50 (UACC-62) | GI50 (Malme-3M) | GI50 (Hs-578T) | GI50 (RXF 393) | GI50 (OVCAR-5) | GI50 (MDA-MB-231) | GI50 (SN12C) | GI50 (LOX IMVI) | GI50 (CAKI-1) | GI50 (K562) | GI50 (SK-OV-3) | GI50 (HCT-15) | GI50 (A549) | GI50 (DU-145) | GI50 (COLO 205) | GI50 (MOLT-4) | GI50 (SK-MEL-5) | GI50 (NCI-H226) | GI50 (HL-60) |
| --- | --- | --- | --- | --- | --- | --- | --- | --- | --- | --- | --- | --- | --- | --- | --- | --- | --- | --- | --- | --- |
| O=C(Oc1ccc2c(c1)CN(Cc1ccccc1)CO2)c1ccccc1 | 16.9 µM (inactive) | 16.8 µM (inactive) | 18.9 µM (inactive) | 23.7 µM (inactive) | 15.2 µM (inactive) | 18.3 µM (inactive) | 19.2 µM (inactive) | 17.1 µM (inactive) | 17.1 µM (inactive) | 20 µM (inactive) | 17.6 µM (inactive) | 16.6 µM (inactive) | 16.9 µM | 19.8 µM (inactive) | 17.9 µM (inactive) | 16.9 µM (inactive) | 10.7 µM (inactive) | 17.1 µM (inactive) | – | – |
| Clc1ccc(CSc2ncnc3c2ncn3C2CCCCO2)cc1 (centres undefined) | 22.5 µM (inactive) | 15.7 µM (inactive) | 17.9 µM (inactive) | 26.5 µM (inactive) | 25.1 µM (inactive) | 37.4 µM (inactive) | 24.5 µM (inactive) | 18.3 µM (inactive) | 18.5 µM (inactive) | 26.3 µM (inactive) | 12.6 µM (inactive) | 21.4 µM (inactive) | 26.5 µM | 25.2 µM (inactive) | 31.2 µM (inactive) | 20 µM (inactive) | – | 10.9 µM (inactive) | 28.4 µM (inactive) | – |
| CS(=O)(=O)N(CC(=O)O)Cc1ccccc1 | > 100 µM (inactive) | > 100 µM (inactive) | > 100 µM (inactive) | > 100 µM (inactive) | > 100 µM (inactive) | > 100 µM (inactive) | > 100 µM (inactive) | > 100 µM (inactive) | > 100 µM (inactive) | > 100 µM (inactive) | > 100 µM (inactive) | > 100 µM (inactive) | > 100 µM | > 100 µM (inactive) | > 100 µM (inactive) | > 100 µM (inactive) | > 100 µM (inactive) | > 100 µM (inactive) | > 100 µM (inactive) | – |
| COC(=O)C(CCCCN)NC(C)=O.Cc1ccc(C(=O)Nc2ccc(S(=O)(=O)O)c3cc(S(=O)(=O)O)cc(S(=O)(=O)O)c23)cc1NC(=O)c1cccc(NC(=O)Nc2cccc(C(=O)Nc3cc(C(=O)Nc4ccc(S(=O)(=O)O)c5cc(S(=O)(=O)O)cc(S(=O)(=O)O)c45)ccc3C)c2)c1 | > 50 µM (inactive) | > 50 µM (inactive) | – | > 50 µM (inactive) | 37.4 µM (inactive) | > 50 µM (inactive) | > 50 µM (inactive) | > 50 µM (inactive) | 44.8 µM (inactive) | > 50 µM (inactive) | > 50 µM (inactive) | > 50 µM (inactive) | 23.9 µM | > 50 µM (inactive) | > 50 µM (inactive) | > 50 µM (inactive) | > 50 µM (inactive) | > 50 µM (inactive) | > 50 µM (inactive) | > 50 µM (inactive) |
| C1=N\CCOCC/N=C\c2ccc(cc2)OCc2cccc(n2)COc2ccc/1cc2 | > 100 µM (inactive) | > 100 µM (inactive) | > 100 µM (inactive) | > 100 µM (inactive) | > 100 µM (inactive) | > 100 µM (inactive) | 54.6 µM (inactive) | > 100 µM (inactive) | – | – | > 100 µM (inactive) | > 100 µM (inactive) | > 100 µM | > 100 µM (inactive) | > 100 µM (inactive) | > 100 µM (inactive) | > 100 µM (inactive) | – | 57.8 µM (inactive) | > 100 µM (inactive) |
| CCCCCCC(N)(CCCCCC)C(=O)Nn1c(C)ccc1C | 28.6 µM (inactive) | 48 µM (inactive) | > 100 µM (inactive) | 18.8 µM (inactive) | 25.7 µM (inactive) | > 100 µM (inactive) | 88.3 µM (inactive) | > 100 µM (inactive) | – | – | > 100 µM (inactive) | > 100 µM (inactive) | 24 µM | 11.4 µM (inactive) | > 100 µM (inactive) | 57.4 µM (inactive) | > 100 µM (inactive) | 21.9 µM (inactive) | 43.7 µM (inactive) | 5.36 µM (inactive) |
| Cc1ccc(S(=O)(=O)NC2C(=O)c3ccccc3C(=O)C2n2ccnc2)cc1 (centres undefined) | 17.4 µM (inactive) | 33.1 µM (inactive) | – | > 100 µM (inactive) | 31.2 µM (inactive) | > 100 µM (inactive) | 16 µM (inactive) | 15 µM (inactive) | 12.2 µM (inactive) | > 100 µM (inactive) | > 100 µM (inactive) | > 100 µM (inactive) | > 100 µM | > 100 µM (inactive) | 17 µM (inactive) | 71 µM (inactive) | 25.7 µM (inactive) | 48.5 µM (inactive) | > 100 µM (inactive) | 18.6 µM (inactive) |
| Cc1nc2ccccc2c(=O)n1NC(=O)c1ccccc1O | > 100 µM (inactive) | > 100 µM (inactive) | – | > 100 µM (inactive) | > 100 µM (inactive) | > 100 µM (inactive) | > 100 µM (inactive) | > 100 µM (inactive) | > 100 µM (inactive) | – | > 100 µM (inactive) | > 100 µM (inactive) | > 100 µM | > 100 µM (inactive) | > 100 µM (inactive) | > 100 µM (inactive) | > 100 µM (inactive) | > 100 µM (inactive) | > 100 µM (inactive) | > 100 µM (inactive) |
| CCOC(=O)[C@H]1C[C@@H](C(=O)c2ccccc2)N2N=C(c3ccc(Br)cc3)C=C[C@H]12 | > 100 µM (inactive) | > 100 µM (inactive) | – | > 100 µM (inactive) | > 100 µM (inactive) | > 100 µM (inactive) | > 100 µM (inactive) | > 100 µM (inactive) | > 100 µM (inactive) | > 100 µM (inactive) | > 100 µM (inactive) | > 100 µM (inactive) | > 100 µM | > 100 µM (inactive) | > 100 µM (inactive) | > 100 µM (inactive) | 77.6 µM (inactive) | – | > 100 µM (inactive) | – |
| COC(=O)C(CCC1C=CN(S(=O)(=O)c2ccc(C)cc2)C1)/N=C/c1ccccc1 (centres undefined) | 43.8 µM (inactive) | 32.8 µM (inactive) | – | > 100 µM (inactive) | 75.5 µM (inactive) | 60.7 µM (inactive) | 39.6 µM (inactive) | 35.5 µM (inactive) | 47.4 µM (inactive) | 87.3 µM (inactive) | 34.7 µM (inactive) | 80 µM (inactive) | 88.5 µM | 42.4 µM (inactive) | 43 µM (inactive) | 18.2 µM (inactive) | 32.8 µM (inactive) | 22.2 µM (inactive) | 32.3 µM (inactive) | 1.29 µM (inactive) |
| CNC1=C/C(=N/C2=CC(=N/C(=C\C#N)C(C)(C)O)/OC2(C)C)OC1(C)C | 11.8 µM (inactive) | 7.91 µM (inactive) | 25.2 µM (inactive) | 35.1 µM (inactive) | – | 60.4 µM (inactive) | 9.95 µM (inactive) | 14.5 µM (inactive) | 5.51 µM (inactive) | 7.82 µM (inactive) | 3.12 µM (inactive) | 17.1 µM (inactive) | 5.31 µM | 15.5 µM (inactive) | 12 µM (inactive) | 6.56 µM (inactive) | 2.31 µM (inactive) | 14.9 µM (inactive) | 20.8 µM (inactive) | 2.01 µM (inactive) |
| C=C1[C@H](OC(C)=O)[C@H]2[C@@H](OC(C)=O)[C@@H](C)C[C@]2(C)C(=O)[C@H](C)/C=C/C(C)(C)C(=O)[C@H](OCC(C)C)[C@H]1OC(C)=O | > 25 µM (inactive) | > 25 µM (inactive) | – | > 25 µM (inactive) | > 25 µM (inactive) | > 25 µM (inactive) | > 25 µM (inactive) | > 25 µM (inactive) | > 25 µM (inactive) | 24.7 µM (inactive) | – | > 25 µM (inactive) | > 25 µM | – | > 25 µM (inactive) | 12.9 µM (inactive) | 20.7 µM (inactive) | > 25 µM (inactive) | > 25 µM (inactive) | 7.57 µM (inactive) |
| COc1cc2nc3n(c2cc1OC)C(O)c1c(Cl)nc(SC)nc1S3 (centres undefined) | 2.35 µM (inactive) | 2.19 µM (inactive) | 1.2 µM (inactive) | 2.77 µM (inactive) | 2.3 µM (inactive) | 16.6 µM (inactive) | 4.42 µM (inactive) | 3.86 µM (inactive) | 1.7 µM (inactive) | 7.24 µM (inactive) | 3.03 µM (inactive) | 3.59 µM (inactive) | 2.64 µM | 5.08 µM (inactive) | 2.39 µM (inactive) | 4.78 µM (inactive) | 1.98 µM (inactive) | 1.92 µM (inactive) | 3.35 µM (inactive) | – |
| O=[N+]([O-])C(=C(Nc1cccc2cccnc12)Nc1cccc2cccnc12)C(Cl)=C(Cl)Cl | > 71.3 µM (inactive) | 77.1 µM (inactive) | > 92.3 µM (inactive) | > 21.7 µM (inactive) | 30 µM (inactive) | > 100 µM (inactive) | 7.35 µM (inactive) | > 55.1 µM (inactive) | 50.4 µM (inactive) | > 49.9 µM (inactive) | 27.9 µM (inactive) | > 100 µM (inactive) | 31.2 µM | > 79.8 µM (inactive) | 58.3 µM (inactive) | 31 µM (inactive) | 74.1 µM (inactive) | 4.97 µM (inactive) | 63.1 µM (inactive) | – |
| CC1OC(O)C(O)C(O)C1O (centres undefined) | > 100 µM (inactive) | > 100 µM (inactive) | > 100 µM (inactive) | > 100 µM (inactive) | > 100 µM (inactive) | > 100 µM (inactive) | > 100 µM (inactive) | > 100 µM (inactive) | > 100 µM (inactive) | > 100 µM (inactive) | > 100 µM (inactive) | > 100 µM (inactive) | > 100 µM | > 100 µM (inactive) | > 100 µM (inactive) | > 100 µM (inactive) | – | > 100 µM (inactive) | > 100 µM (inactive) | – |
